Data: patent US20090215742A1, “AMIDE […]” (PFIZER, INC., priority 2005, published 2009)

Molecular target: T1, HSP-90 (Homo sapiens, UniProt P07900)
T1 construct: fused on or other part: 6-His tag at the C-terminus
Assay: HSP-90 SPA (scintillation proximity assay) competition binding assay, displacement of tritiated propyl-Geldanamycin
Details: for inhibition at 1 µM: read-out: % inhibition @ 1 μM; for inhibition at 10 µM: read-out: % inhibition @ 10 μM
Experimental: Compounds of the present invention were evaluated for potency against HSP-90 using a SPA (scintillation proximity assay) competition binding assay. Briefly, either full length or N-terminal HSP-90 that contains a 6-His tag on its C-terminus binds to copper on Yttrium-silicate scintillant beads via the His-tag. Tritiated propyl-Geldanamycin (pGA), whose structure is shown below, is an analog of a natural inhibitor of HSP-90 called Geldanamycin.
Tritiated pGA, which contains a tritiated propyl-amine group added at the #17 position, binds HSP-90 and brings the isotope into proximity with the beads. […] The beta signal emitted from the isotope excites the scintillant, which creates a measurable signal. As competitive compounds are added to the assay mixture, they compete with bound tritiated pGA at the ATP-binding site on the N-terminal of HSP-90. When a compound displaces the labeled pGA, the signal is reduced (the beta-particles are no longer in proximity with the bead). This reduction in signal is used to quantify the extent to which the inhibitor/compound is competitive with pGA.
Typical reaction solutions contained 30 nM HSP-90 and 200 nM ^3H-pGA in binding buffer (100 mM Hepes, pH 7.5 and 150 mM KCl). […] Inhibitors were added to the HSP-90/^3H-pGA solutions at eleven different concentrations for Ki determinations. […] To determine percent inhibition, the compound was tested at 1 and 10 μM. The final DMSO in the samples was 4%. Copper-Ysi beads (Amersham, #RPNQ0096) that have been diluted in binding buffer were added to each well to give a final concentration of 100 μg/well. The plates were sealed, covered with a foil-covered lid and shaken for 30 minutes at room temperature. The beads were allowed to settle for 30 minutes after which the plates were counted using a Packard TopCount NXT instrument. This procedure has also been adapted for medium throughput using a Beckman Biomek FX. Samples were run in duplicate and on two separate days to assure an accurate value of Ki.
For Ki determinations, the corrected cpm's (actual cpm's minus background) were plotted vs. inhibitor concentration using GraphPad Prism software. […] The IC50 was then used to calculate the Ki by using the Cheng-Prusoff equation: […]
This is normally true when the observed IC50 is […] the HSP-90 concentration. For a tight binding inhibitor, the following equation can be applied: […]
EL and ELo are the radioligand-HSP-90 complexes in the presence and absence of inhibitor, respectively. EL/ELo represents the fractional signal in the presence of inhibitor. Io, Eo, and Lo are the inhibitor, HSP-90, and radioligand concentrations, respectively.

O=C(c1cc2ccccc2cc1O)N1Cc2ccccc2C1 [Example 24, 3-(1,3-dihydro-2H-isoindol-2-ylcarbonyl)-2-naphthol]
inhibition at 1 µM: 5.4% | inhibition at 10 µM: 34.9%

COc1ccc2cc(O)c(C(=O)N3Cc4ccccc4C3)cc2c1 [Example 25, 3-(1,3-dihydro-2H-isoindol-2-ylcarbonyl)-6-methoxy-2-naphthol]
inhibition at 1 µM: 9.9% | inhibition at 10 µM: 13.7%

O=C(c1ccc(Cl)cc1O)N1Cc2ccccc2C1 [Example 26, 5-chloro-2-(1,3-dihydro-2H-isoindol-2-ylcarbonyl)phenol]
inhibition at 1 µM: 1% | inhibition at 10 µM: 39%

Cc1ccc(C(=O)N2Cc3ccccc3C2)c(O)c1 [Example 27, 2-(1,3-dihydro-2H-isoindol-2-ylcarbonyl)-5-methylphenol]
inhibition at 1 µM: 0.2% | inhibition at 10 µM: 26.2%

O=C(c1cc(-c2ccc(F)cc2F)ccc1O)N1Cc2ccccc2C1 [Example 28, 3-(1,3-dihydro-2H-isoindol-2-ylcarbonyl)-2′,4′-difluorobiphenyl-4-ol]
inhibition at 1 µM: 50.8% | inhibition at 10 µM: 76.2%

O=C(c1ccc(F)cc1O)N1Cc2ccccc2C1 [Example 29, 2-(1,3-dihydro-2H-isoindol-2-ylcarbonyl)-5-fluorophenyl]
inhibition at 1 µM: 0% | inhibition at 10 µM: 26.6%

Cc1ccc(O)c(C(=O)N2Cc3ccccc3C2)c1 [Example 30, 2-(1,3-dihydro-2H-isoindol-2-ylcarbonyl)-4-methylphenyl]
inhibition at 1 µM: 5.8% | inhibition at 10 µM: 61.2%

Nc1nccc(-c2ccc(O)c(C(=O)N3Cc4ccccc4C3)c2)n1 [Example 31, 4-(2-aminopyrimidin-4-yl)-2-(1,3-dihydro-2H-isoindol-2-ylcarbonyl)phenol]
inhibition at 1 µM: 8.1% | inhibition at 10 µM: 12.9%

O=C(c1cc(-c2ccncn2)ccc1O)N1Cc2ccccc2C1 [Example 32, 2-(1,3-dihydro-2H-isoindol-2-ylcarbonyl)-4-pyrimidin-4-ylphenyl]
inhibition at 1 µM: -11.9% | inhibition at 10 µM: 14.2%

O=C(c1cc(-c2cc[nH]n2)ccc1O)N1Cc2ccccc2C1 [Example 33, 2-(1,3-dihydro-2H-isoindol-2-ylcarbonyl)-4-(1H-pyrazol-3-yl)phenol]
inhibition at 1 µM: 2% | inhibition at 10 µM: 20.9%

CCc1nccc(-c2ccc(O)c(C(=O)N3Cc4ccccc4C3)c2)n1 [Example 34, 2-(1,3-dihydro-2H-isoindol-2-ylcarbonyl)-4-(2-ethylpyrimidin-4-yl)phenol]
inhibition at 1 µM: -3.1% | inhibition at 10 µM: 43%

Cc1nccc(-c2ccc(O)c(C(=O)N3Cc4ccccc4C3)c2)n1 [Example 35, 2-(1,3-dihydro-2H-isoindol-2-ylcarbonyl)-4-(2-methylpyrimidin-4-yl)phenol]
inhibition at 1 µM: 6.1% | inhibition at 10 µM: 32.8%

O=C(c1ccc(O)cc1O)N1CCOCC(COCC2CC2)C1 (stereo not drawn) [Example 37]
inhibition at 1 µM: 24.6% | inhibition at 10 µM: 64.1%

O=C(c1ccc(O)cc1O)N1CCOCC(O)(COCC2CC2)C1 (stereo not drawn) [Example 38]
inhibition at 1 µM: 27.4% | inhibition at 10 µM: 68.4%

CC(C)CN(C)C(=O)c1ccc(O)cc1O [Example 39, 2,4-dihydroxy-N-isobutyl-N-methylbenzamide]
inhibition at 1 µM: 11.3% | inhibition at 10 µM: 52.3%

CN(C(=O)c1ccc(O)cc1O)[C@@H]1CCCC[C@H]1O [Example 40, 2,4-dihydroxy-N-(2-hydroxycyclohexyl)-N-methylbenzamide]
inhibition at 1 µM: 13.2% | inhibition at 10 µM: 49.1%

CC(C)(C)CC1CCCCN1C(=O)c1ccc(O)cc1O (stereo not drawn) [Example 41, 4-{[2-(2,2-dimethylpropyl)piperidin-1-yl]carbonyl}benzene-1,3-diol]
inhibition at 1 µM: 64.8% | inhibition at 10 µM: 86.8%

CC1CCN(C(=O)c2ccc(O)cc2O)CC1 [Example 42, 4-[(4-methylpiperidin-1-yl)carbonyl]benzene-1,3-diol]
inhibition at 1 µM: 59.9% | inhibition at 10 µM: 86.5%

O=C(c1ccc(O)cc1O)N1CCC(Cc2ccc(Cl)cc2)CC1 [Example 43, 4-{[4-(4-chlorobenzyl)piperidin-1-yl]carbonyl}benzene-1,3-diol]
inhibition at 1 µM: 35.9% | inhibition at 10 µM: 73.6%

O=C(c1ccc(O)cc1O)N1CCCCC1CCC1CCCC1 (stereo not drawn) [Example 44, 4-{[2-(2-cyclopentylethyl)piperidin-1-yl]carbonyl}benzene-1,3-diol]
inhibition at 1 µM: 82.4% | inhibition at 10 µM: 90.5%

CN(C(=O)c1ccc(O)cc1O)[C@H]1CCCC[C@@H]1O [Example 45, 2,4-dihydroxy-N-(2-hydroxycyclohexyl)-N-methylbenzamide]
inhibition at 1 µM: 9.6% | inhibition at 10 µM: 38.3%

O=C(c1ccc(O)cc1O)N1CCC(CCc2ncccn2)CC1 [Example 46, 4-{[4-(2-pyrimidin-2-ylethyl)piperidin-1-yl]carbonyl}benzene-1,3-diol]
inhibition at 1 µM: 44.9% | inhibition at 10 µM: 77.1%

O=C(c1ccc(O)cc1O)N1CCC(CCc2cnccn2)CC1 [Example 47, 4-{[4-(2-pyrazin-2-ylethyl)piperidin-1-yl]carbonyl}benzene-1,3-diol]
inhibition at 1 µM: 43.4% | inhibition at 10 µM: 80%

O=C(c1ccc(O)cc1O)N1CCC(CCc2cccc(Cl)c2)CC1 [Example 48, 4-({4-[2-(3-chlorophenyl)ethyl]piperidin-1-yl}carbonyl)benzene-1,3-diol]
inhibition at 1 µM: 63.3% | inhibition at 10 µM: 87.5%

O=C(c1ccc(O)cc1O)N1CCC(CCc2ccccc2)CC1 [Example 49, 4-{[4-(2-phenylethyl)piperidin-1-yl]carbonyl}benzene-1,3-diol]
inhibition at 1 µM: 61.2% | inhibition at 10 µM: 86.3%

O=C(c1ccc(O)cc1O)N1CCC(CCc2cncnc2)CC1 [Example 50, 4-{[4-(2-pyrimidin-5-ylethyl)piperidin-1-yl]carbonyl}benzene-1,3-diol]
inhibition at 1 µM: 34.6% | inhibition at 10 µM: 77.7%

O=C(c1ccc(O)cc1O)N1CCC2(CC1)CC(OCc1ccccc1F)CO2 (stereo not drawn) [Example 51, 4-({3-[(2-fluorobenzyl)oxy]-1-oxa-8-azaspiro[4.5]dec-8-yl}carbonyl)benzene-1,3-diol]
inhibition at 1 µM: 22.1% | inhibition at 10 µM: 70.9%

CCOC(=O)C1CCCN(C(=O)c2ccc(O)cc2O)C1 (stereo not drawn) [Example 52, ethyl 1-(2,4-dihydroxybenzoyl)piperidine-3-carboxylate]
inhibition at 1 µM: 39.1% | inhibition at 10 µM: 80.2%

C[C@H]([C@@H](O)c1ccccc1)N(C)C(=O)c1ccc(O)cc1O [Example 53, 2,4-dihydroxy-N-(2-hydroxy-1-methyl-2-phenylethyl)-N-methylbenzamide]
inhibition at 1 µM: -7.8% | inhibition at 10 µM: 7.3%

O=C(c1ccc(O)cc1O)N1CCC(c2ccccc2)(c2ccccc2)CC1 [Example 54, 4-[(4,4-diphenylpiperidin-1-yl)carbonyl]benzene-1,3-diol]
inhibition at 1 µM: 50.3% | inhibition at 10 µM: 85.5%

O=C(c1ccc(O)cc1O)N1CCCC(CCOc2ccccc2)C1 (stereo not drawn) [Example 55, 4-{[3-(2-phenoxyethyl)piperidin-1-yl]carbonyl}benzene-1,3-diol]
inhibition at 1 µM: 77.4% | inhibition at 10 µM: 87%

CCOc1cc2c(cc1OCC)CN(C(=O)c1ccc(O)cc1O)CC2 [Example 56, 4-[(6,7-diethoxy-3,4-dihydroisoquinolin-2(1H)-yl)carbonyl]benzene-1,3-diol]
inhibition at 1 µM: 27% | inhibition at 10 µM: 73%

O=C(c1ccc(O)cc1O)N1CCCCC1c1cccc(F)c1 (stereo not drawn) [Example 57, 4-{[2-(3-fluorophenyl)piperidin-1-yl]carbonyl}benzene-1,3-diol]
inhibition at 1 µM: 73.7% | inhibition at 10 µM: 88.2%

CCc1nc(COCC2CCN(C(=O)c3ccc(O)cc3O)C2)no1 (stereo not drawn) [Example 58, 4-[(3-{[(5-ethyl-1,2,4-oxadiazol-3-yl)methoxy]methyl}pyrrolidin-1-yl)carbonyl]benzene 1,3-diol]
inhibition at 1 µM: 29.3% | inhibition at 10 µM: 72.5%

O=C(c1ccc(O)cc1O)N1CCCC(COc2cccc(Cl)c2)C1 (stereo not drawn) [Example 59, 4-({3-[(3-chlorophenoxy)methyl]piperidin-1-yl}carbonyl)benzene-1,3-diol]
inhibition at 1 µM: 58.6% | inhibition at 10 µM: 82.9%

Cc1ccc(OCC2CCCN(C(=O)c3ccc(O)cc3O)C2)cn1 (stereo not drawn) [Example 60, 4-[(3-{[(6-methylpyridin-3-yl)oxy]methyl}piperidin-1-yl)carbonyl]benzene 1,3-diol]
inhibition at 1 µM: 77.6% | inhibition at 10 µM: 88.1%
